Columns and labels:
Format in all cases: cell-based
[1] = molecular target: T1, interaction between the KRS protein and the laminin receptor (LR) (Homo sapiens, UniProt Q15046); test: Yeast Two Hybrid inhibition of the interaction between the KRS protein and the laminin receptor (LR); details: 1 μL of 20 mM DMSO solution per 200 μL culture; 30° C., 6 days; absorbance 540 nm; non-treated control = 100%
T1 construct: expressed in transfected cells; host or cells: yeast EGY/SH cells
Outline: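 EGY/SH yeast co-transformed with LexA-KRS and B42-LR, diluted in galactose medium to A540 ~0.15–0.2, then cultured 6 days at 30 °C with compound added from 20 mM DMSO stocks. Growth read as A540 and expressed as % proliferation versus untreated control; KRS–AIMP2 and KRS–AIMP3 pairs run identically for specificity.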

[2] = molecular target: T2, binding between KRS and AIMP2 (Homo sapiens, UniProt Q15046); test: Yeast Two Hybrid specificity test, LexA-KRS / B42-AIMP2 co-transformed yeast cells; details: 1 μL of 20 mM DMSO solution per 200 μL culture; 30° C., 6 days; absorbance 540 nm; non-treated control = 100%
T2 construct: expressed in transfected cells; host or cells: yeast cells (co-transformed)
Outline: (§1)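 Yeast co-transformed with LexA-KRS and either B42-AIMP2 or B42-AIMP3, diluted in galactose medium to A540 ~0.15-0.2, then given 1 μL of 20 mM DMSO compound stock per 200 μL well. After 6 days at 30 °C, A540 growth expressed as % of untreated control.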

[3] = molecular target: T3, binding between KRS and AIMP3 (Homo sapiens, UniProt Q15046); test: Yeast Two Hybrid specificity test, LexA-KRS / B42-AIMP3 co-transformed yeast cells; details: 1 μL of 20 mM DMSO solution per 200 μL culture; 30° C., 6 days; absorbance 540 nm; non-treated control = 100%
T3 construct: expressed in transfected cells; host or cells: yeast cells (co-transformed)
Outline: as §1

A549 cells = test: Cell Migration Assay (transwell, laminin); details: Homo sapiens, laminin 10 μg/mL in lower well, test compounds 0.39˜100 μM, 6 hours at 37° C.
Outline: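 A549 cells in serum-free RPMI1640 migrated 6 h at 37 °C through 8.0 μm-pore polycarbonate membranes toward laminin (10 μg/mL), compound (0.39–100 μM) in both chambers. Migrated cells hematoxylin-stained, counted at three fields (×20); IC50 by non-linear regression.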

Cytotoxicity Study (WST) = details: human; A549 cells, serum-free RPMI1640, test compounds 0.39˜100 μM, 5 hours + 2 hours WST, absorbance 450 nm
Method: A549 cells (Korean Cell Line Bank) was added to a 96-well plate in a concentration of 2×10^4 cells per well and then a RPMI1640 medium supplemented with 10% fetal bovine serum was added to each well. After culturing 24 hours, the medium was changed with a serum-free RPMI1640 medium and then test compounds (0.39˜100 μM) were treated. After culturing at 37° C. for 5 hours in a CO2 incubator, 10 μL of a WST reagent (Roche) was added to each well, which was then cultured for additional 2 hours. A microplate reader was used to measure the absorbance at 450 nm. From the absorbance values, each IC50 value was calculated by non-linear regression curve fit using the ‘GraphPad Prism” program.
The cytotoxicity study was performed, using the reduction of WST by the NADH produced by the electron transport system of mitochondria. […] Therefore, the compounds of the present invention have therapeutic activity against a disease associated with cancer cell metastasis through (i) selective inhibition against the binding between KRS and LR and (ii) inhibition of cell migration, rather than non-specific cytotoxicity.

T1 sequence (Q15046 whole entry): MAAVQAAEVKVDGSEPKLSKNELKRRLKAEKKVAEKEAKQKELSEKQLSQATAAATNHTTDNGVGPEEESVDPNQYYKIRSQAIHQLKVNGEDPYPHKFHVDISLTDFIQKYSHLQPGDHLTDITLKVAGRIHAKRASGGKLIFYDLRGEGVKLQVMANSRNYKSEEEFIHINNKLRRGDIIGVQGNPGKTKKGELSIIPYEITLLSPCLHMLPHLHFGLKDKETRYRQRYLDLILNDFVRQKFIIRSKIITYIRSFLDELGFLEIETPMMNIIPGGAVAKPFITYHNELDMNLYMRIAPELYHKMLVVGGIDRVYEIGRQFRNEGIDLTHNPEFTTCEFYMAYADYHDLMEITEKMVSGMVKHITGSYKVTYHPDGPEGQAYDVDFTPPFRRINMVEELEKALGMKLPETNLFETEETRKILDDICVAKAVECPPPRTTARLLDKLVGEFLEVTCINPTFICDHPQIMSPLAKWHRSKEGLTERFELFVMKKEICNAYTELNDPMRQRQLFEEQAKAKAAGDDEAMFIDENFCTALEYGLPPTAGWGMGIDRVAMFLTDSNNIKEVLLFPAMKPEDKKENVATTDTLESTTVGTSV
T3 sequence (Q15046 whole entry): as above
T2 sequence (Q15046 whole entry): as above

SMILES	Yeast cell proliferation rates KRS-LR (%) [1]	Yeast cell proliferation rates KRS-AIMP2 (%) [2]	Yeast cell proliferation rates KRS-AIMP3 (%) [3]	IC50 (A549 cells)	IC50 at 5 h (Cytotoxicity Study (WST))
CCC(C(=O)O)n1c(=NC(=O)c2cccc(Cl)c2)sc2cc(F)c(F)cc21 (stereo not drawn) [Example 290, 2-(2-((3-chlorobenzoyl)imino)-5,6-difluorobenzo[d]thiazol-3(2H)-yl)butanoic acid]	35.1%	87.0%	99.0%	3.2 µM	172 µM
CC(C(=O)O)n1c(=NC(=O)c2cccc(Cl)c2)sc2c(Cl)cccc21 (stereo not drawn) [Example 309, 2-(7-chloro-2-((3-chlorobenzoyl)imino)benzo[d]thiazol-3(2H)-yl)propionic acid]	14.5%	95.8%	101.4%	12.9 µM	134 µM
CCOc1ccc2c(c1)sc(=NC(=O)c1cccc(Cl)c1)n2C(CC)C(=O)O (stereo not drawn) [Example 56, 2-{2-[(3-chlorobenzoyl)imino]-6-ethoxybenzo[d]thiazol-3(2H)-yl}butanoic acid]	31.2%	103.3%	104.7%	2.7 µM	95.5 µM
